Measured values reported in patent US6300501A, “Histidine-(N-benzyl glycinamide) inhibitors of protein farnesyl transferase” (Warner-Lambert Company, priority 1998, dated 2001).
pIC50: −log10 of the molar value. Where two headings read alike, the source gives them in different places.

Tests used:
[1] = target: T1, SF9 affinity purified rat farnesyl protein transferase (Rattus norvegicus, UniProt Q02293+Q04631); assay: PFT inhibitory activity (radiolabeled farnesyl pyrophosphate, streptavidin bead assay); type: biochemical
T1 construct: made in house; host or cells: Sf9 insect cells (baculovirus system inferred from b7)
T1 sequence (Q02293 whole entry, one chain of several): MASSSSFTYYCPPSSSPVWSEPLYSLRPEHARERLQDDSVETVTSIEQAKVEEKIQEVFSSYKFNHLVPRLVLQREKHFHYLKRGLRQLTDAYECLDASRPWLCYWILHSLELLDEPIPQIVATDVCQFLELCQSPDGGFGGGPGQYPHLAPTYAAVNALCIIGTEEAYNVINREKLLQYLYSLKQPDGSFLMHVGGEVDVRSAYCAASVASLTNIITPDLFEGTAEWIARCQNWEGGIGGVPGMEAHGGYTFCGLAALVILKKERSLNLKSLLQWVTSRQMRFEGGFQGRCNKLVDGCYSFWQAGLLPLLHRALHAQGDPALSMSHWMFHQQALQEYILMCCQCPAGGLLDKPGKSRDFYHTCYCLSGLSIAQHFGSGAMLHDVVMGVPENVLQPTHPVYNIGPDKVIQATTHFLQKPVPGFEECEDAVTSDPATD
Procedure: The protein:farnesyl transferase (PFT) or farnesyl protein transferase (FPT) inhibitory activity of compounds of the present invention were assayed in HEPES buffer (pH 7.4) containing 5 mM potassium phosphate and 20 μM ZnCl2. The solution also contained 5 mM DTT (dithiothreitol), 5 mM MgCl2, and 0.1% PEG 8000. Assays were performed in 96 well plates (Wallec) and employed solutions composed of varying concentrations of a compound of the present invention in 100% DMSO (dimethylsulfoxide). Upon addition of both substrates, radiolabeled farnesyl pyrophosphate ([1^3 H], specific activity 15-30 Ci/mmol, final concentration 134 nM) and (biotinyl)-Ahe-Thr-Lys-Cys-Val-Ile-Met ([3aS[3a alpha, 4 beta, 6a alpha]-hexahydro-2-oxo-1H-thieno[3,4-d]imidazole-5-pentanoic acid]-[7-aminoheptanoic acid]-Thr-Lys-Cys-Val-Ile-Met) (Ahe is 7-aminoheptanoic acid, Thr is threonine, Lys is lysine, Cys is cysteine, Val is valine, Ile is isoleucine and Met is methionine) (final concentration 0.2 μM), the enzyme reaction was started by addition of SF9 affinity purified rat farnesyl protein transferase. After incubation at 30° C. for 30 minutes, the reaction was terminated by diluting the reaction 2.5-fold with a stop buffer containing 1.5 M magnesium acetate, 0.2 M H3 PO4, 0.5% BSA (bovine serum albumin), and strepavidin beads (Amersham) at a concentration of 1.3 mg/mL. After allowing the plate to settle for 30 minutes at room temperature, radioactivity was quantitated on a microBeta counter (Model 1450, Wallec). The assay was also carried out without 5 mM potassium phosphate.

[2] = system: ras farnesylation in ras-transformed cells; assay: Gel shift assay; type: cell-based; conditions: for minimal effective concentration: read-out: Gel Shift (μM) MED (minimal effective dose to observe inhibition of ras farnesylation)
Procedure: Twenty-four hours after planting 2×10^6 ras-transformed cells per treatment condition, the farnesylation inhibitor is added at varying concentrations. Following an 18-hour incubation period, cells are lysed in phosphate-buffered saline containing 1% Triton X-100, 0.5% sodium deoxycholate, and 0.1% SDS (sodium dodecyl sulfate), pH 7.4 in the presence of several protease inhibitors (PMSF (phenylmethylsulfonylfluoride), antipain, leupeptin, pepstatin A, and aprotinin all at 1 μg/mL). Ras protein is immunoprecipitated from the supernatants by the addition of 3 μg v-H-ras Ab-2 (Y13-259 antibody from Oncogene Science). After overnight immunoprecipitation, 30 μL of a 50% protein G-Sepharose slurry (Pharmacia) is added followed by 45-minute incubation. Pellets are resuspended in 2× tris-glycine loading buffer (Novex) containing 5% β-mercaptoethanol and then denatured by 5 minutes boiling prior to electrophoresis on 14% Tris-glycine SDS gels. Using Western transfer techniques, proteins are transferred to nitrocellulose membranes followed by blocking in blocking buffer. Upon overnight incubation with primary antibody (pan-ras Ab-2 from Oncogene Science), an antimouse HRP (horse radish peroxidase) conjugate secondary antibody (Amersham) is employed for detection of the ras protein. Blots are developed using ECL(enhanced chemiluminescence) techniques (Amersham).

[3] = system: H61 cells: NIH transformed 3T3 H-ras cells; assay: Clonogenic assay (6 well plates, soft agar); type: cell-based; conditions: for pIC50: colonies counted after Day 13, read-out: Clonogenic Assay IC50; for IC50: average obtained by additional tests, read-out: Clonogenic Assay IC50 (μM), number in parentheses
Procedure: Clonoaenic Assay (6 well lates)
Sometime previous to setting up an actual test:
1. Make up 1.5% Bacto Agar in Milli-Q water and autoclave.
2. Make up 500 mL 2× DMEM-HG without phenol red by combining the following:
1 bottle DMEM base powder (Sigma D-5030)
Adjust pH to 7.1 with HCL; filter sterilize.
1. Set up makeshift water bath (beaker of water with thermometer, on hot plate) in the hood. Keep water temperature between 37° C. to 43° C.
2. […] 1.5% Bacto Agar for approximately 2 minutes on high, or until completely melted. Then let it cool somewhat before using it. (You can keep it from resolidifying by setting the bottle on the hot plate.) […]
3. Bottom Layer (0.6% agar) Top Layer (0.3% agar)
20% calf serum 20% calf serum
40% Bacto Agar (1.5%) 20% Bacto Agar (1.5%)
Depending on the volume of each layer needed, use either 50 mL conical tubes or 200 mL turnip tubes which can be floated in the "water bath".
4. Add 1 mL of bottom layer agar/medium to each well: deliver 1 mL warm agar/medium to a well; then using the tip of the pipet, spread the agar/medium around to completely cover the bottom. Repeat with next well.
5. Allow the plates to set at room temperature for about 5 minutes until the bottom layer solidifies.
6. Label sterile Falcon 2054 (12×75 mm) tubes and add appropriate volume of drug solutions into them.
7. Aliquot 4 AL of DMSO or drug solution per 1 mL of agar/medium to appropriate tubes; then add the agar/medium/cells to each tube. Always add 1 mL more than will actually be needed. Mix up and down in the pipet (gently); then deliver 1 mL to the center of each well. The upper layer is less viscous, so it will generally spread out over the bottom layer unaided. If necessary, rotate the plane of the plate gently to spread the top layer evenly over the bottom layer.
8. Let plates set for 5 or 10 minutes at room temperature to solidify, then put into 5% CO2, 37° C. incubator.
9. On Day 13, add 0.5 mL of INT (tetrazolium 1 mg/mL in Milli-Q H2 O, filter sterilized) and return plates to incubator.

[4] = HEPES buffer pH 7.4, without 5 mM potassium phosphate, read-out: IC50 (μM) Hepes
[5] = HEPES buffer pH 7.4 containing 5 mM potassium phosphate, read-out: IC50 (μM) 5 mM K3 PO4 -2
[6] = with 5 mM potassium phosphate, average obtained by additional tests, read-out: IC50 (μM) 5 mM K3 PO4 -2, number in parentheses
[7] = without 5 mM potassium phosphate, average obtained by additional tests, read-out: IC50 (μM) Hepes, number in parentheses
[8] = ras-transformed cells, 18-hour incubation

IC50 [1, 4] [µM]	IC50 [1, 5] [µM]	IC50 [1, 6] [µM]	SMILES	IC50 [1, 7] [µM]	minimal effective concentration [2, 8] [µM]	pIC50 [3]	pIC50 ([3]; 312 h)	IC50 [3] [µM]	Gel Shift (μM) MED, number in parentheses ([2]; average obtained by additional tests) [µM]	Gel Shift (μM) MED (minimal effective dose to observe inhibition of ras farnesylation) [2, 8] [µM]
5.8	0.0076	0.005	CC(CNC(=O)CN(Cc1ccc(OCc2ccccc2)cc1)C(=O)[C@H](Cc1c[nH]cn1)NC(=O)OCc1ccccc1)c1ccccc1 (stereo partly drawn) [Example 4, (S)-[1-[(4-Benzyloxy-benzyl)-[(2-phenyl-propyl-carbamoyl)-methyl]-carbamoyl]-2-(1H-imidazole-4-yl)-ethyl]carbamic Acid Benzyl Ester]	0.15	0.05		< 6.00	0.31		
0.2	0.0022	0.017	CC(CNC(=O)CN(Cc1ccc(OCc2ccccc2)cc1)C(=O)[C@H](Cc1c[nH]cn1)NC(=O)NCc1ccccc1)c1ccccc1 (stereo partly drawn) [Example 6, (S)-N-(4-Benzyloxy-benzyl)-2-(3-benzyl-ureido)-3-(1H-imidazole-4-yl)-N-[(2-phenyl-propylcarbamoyl)-methyl]-propionamide]	0.5	0.2		< 6.00			
9.8	0.36		O=C(CN(Cc1ccc(OCc2ccccc2)cc1)C(=O)[C@H](Cc1c[nH]cn1)NC(=O)OCc1ccccc1)NCCc1ccccc1F [Example 7, (S)-[1-((4-Benzyloxy-benzyl)-{[2-(2-fluoro-phenyl)-ethylcarbamoyl]-methyl]-carbamoyl)-2-(1H-imidazole-4-yl)-ethyl]-carbamic Acid Benzyl Ester]		0.1		< 6.00			
7.8	0.3		O=C(CN(Cc1ccc(OCc2ccccc2)cc1)C(=O)[C@H](Cc1c[nH]cn1)NC(=O)OCc1ccccc1)NCCc1ccccn1 [Example 8, (S)-[1-{(4-Benzyloxy-benzyl)-[(2-pyridin-2-yl-ethylcarbamoyl)-methyl]-carbamoyl]-2-(1H-imidazole-4-yl)-ethyl]-carbamic Acid Benzyl Ester]		0.2		< 6.00			
4.5	0.36		O=C(CN(Cc1ccc(OCc2ccccc2)cc1)C(=O)[C@H](Cc1c[nH]cn1)NC(=O)OCc1ccccc1)NCCc1ccccc1Br [Example 9, (S)-[1-((4-Benzyloxy-benzyl)-{[2-(2-bromo-phenyl)-ethylcarbamoyl]-methyl}-carbamoyl)-2-(1H-imidazole-4-yl)-ethyl]-carbamic Acid Benzyl Ester]		0.2		< 6.00			
1.1	0.062		O=C(CN(Cc1ccc(OCc2ccccc2)cc1)C(=O)[C@H](Cc1c[nH]cn1)NC(=O)OCc1ccccc1)NCC(c1ccccc1)c1ccccn1 (stereo partly drawn) [Example 12, (S)-[1-{(4-Benzyloxy-benzyl)-[(2-phenyl-2-pyridin-2-yl-ethylcarbamoyl)-methyl]-carbamoyl}-2-(1H-imidazole-4-yl)-ethyl]-carbamic Acid Benzyl Ester]		0.2		< 6.00			
1.4	0.022		CC(CNC(=O)CN(Cc1ccc(Cl)cc1)C(=O)[C@H](Cc1c[nH]cn1)NC(=O)OCc1ccccc1)c1ccccc1 (stereo partly drawn) [Example 13, (S)-[1-{(4-Chloro-benzyl)-[(2-phenyl-propylcarbamoyl)-methyl]-carbamoyl}-2-(1H-imidazole-4-yl)-ethyl]-carbamic Acid Benzyl Ester]		0.2		< 6.00			
1.6	0.066		O=C(CN(Cc1ccc(OCc2ccccc2)cc1)C(=O)[C@H](Cc1cnc[nH]1)NC(=O)OCc1ccccc1)NCC(O)c1ccccc1 (stereo partly drawn) [Example 14, (S)-[1-{(4-Benzyloxy-benzyl)-[(2-hydroxy-2-phenyl-ethylcarbamoyl)-methyl]-carbamoyl}-2-(3H-imidazole-4-yl)-ethyl]-carbamic Acid Benzyl Ester]		0.05		< 6.00			
0.29	0.007		CCC(CNC(=O)CN(Cc1ccc(OCc2ccccc2)cc1)C(=O)[C@H](Cc1c[nH]cn1)NC(=O)OCc1ccccc1)c1ccccc1 (stereo partly drawn) [Example 16, (S)-[1-{(4-Benzyloxy-benzyl)-[(2-phenyl-butylcarbamoyl)-methyl]-carbamoyl}-2-(1H-imidazole-4-yl)-ethyl]-carbamic Acid Benzyl Ester]		0.01 to 0.05		6.40			
2.8	0.086		CC(CNC(=O)CN(Cc1ccc(OCc2ccccc2)cc1)C(=O)[C@H](Cc1c[nH]cn1)NC(=O)CCc1ccccc1)c1ccccc1 (stereo partly drawn) [Example 17, (S)-N-(4-Benzyloxy-benzyl)-3-(1H-imidazole-4-yl)-2-(3-phenyl-proponylamino)-N-[(2-phenyl-propylcarbamoyl)-methyl]-propionamide]		0.2	< 6.00				

SMILES	IC50 [1, 4] [µM]	IC50 [1, 5] [µM]	IC50 [1, 6] [µM]	IC50 [1, 7] [µM]	minimal effective concentration [2, 8] [µM]	pIC50 [3]	pIC50 ([3]; 312 h)	IC50 [3] [µM]	Gel Shift (μM) MED, number in parentheses ([2]; average obtained by additional tests) [µM]	Gel Shift (μM) MED (minimal effective dose to observe inhibition of ras farnesylation) [2, 8] [µM]
O=C(CN(Cc1ccc(Cl)cc1)C(=O)[C@H](Cc1c[nH]cn1)NC(=O)OCc1ccccc1)NCCOCc1ccccc1 [Example 3]	3.1	0.97	0.61	2.8	0.25	< 6.00				
O=C(CN(Cc1ccc(OCc2ccccc2)cc1)C(=O)[C@H](Cc1c[nH]cn1)NC(=O)OCc1ccccc1)NCC(c1ccccc1)c1ccccc1 [Example 5, (S)-[1-[(4-Benzyloxy-benzyl)-[(2,2-diphenyl-ethylcarbamoyl)-methyl]-carbamoyl]-2-(1H-imidazole-4-yl)-ethvl]-carbamic Acid Benzyl Ester]	1.73	0.038		1.6	0.2	6.15		2.5	0.05	
C[C@H](Cc1ccccc1)NC(=O)CN(Cc1ccc(OCc2ccccc2)cc1)C(=O)[C@H](Cc1c[nH]cn1)NC(=O)OCc1ccccc1 [Example 10]	0.58	0.018				6.15				0.01 to 0.05
C[C@@H](Cc1ccccc1)NC(=O)CN(Cc1ccc(OCc2ccccc2)cc1)C(=O)[C@H](Cc1c[nH]cn1)NC(=O)OCc1ccccc1 [Example 11]	2.5	0.082			0.2	< 6.00				
